# Measured values from US20130203798A1, “DIAGNOSIS AND TREATMENT OF FUNCTIONAL DYSPEPSIA AND IRRITABLE BOWEL SYNDROME” (EV MED, priority 2012, published 2013).
# What was measured:
# coxsackievirus B3 (CVB3) = test: Inhibition of enterovirus replication in chronically infected BGMK-DAF cells, viral RNA by qRT-PCR; format: cell-based; conditions: for Viral RNA Log10: no treatment 6.84
# Description: (§1) Oxymatrine is an alkaloid with antiviral and immune boosting effect. […] 200,000 BGMK-DAF cells were infected with coxsackievirus B3,4 (CVB3,4) or echovirus 6,7 (Echo V6,7), previously titrated to cause complete lysis of cells in 48-72 hours, then treated with 0.18 μg of peg-interferon α-2a in 4 hours and 90 hours. Oxymatrine was added at 162 hours post-infection. Viral RNA, expressed in log10 was quantified by qRT-PCR with a cDNA standard, and reduction of log viral RNA calculated based on no-treatment wells. Duplicate wells were combined for viral RNA determination.
# coxsackievirus B4 (CVB4) = test: as above; format: cell-based; conditions: for Viral RNA Log10: no treatment 4.20
# Description: as §1
# echovirus 6 (EchoV 6) = test: as above; format: cell-based; conditions: EchoV 6, BGMK-DAF cells; for Viral RNA Log10: no treatment 5.00
# Description: as §1
# echovirus 7 (EchoV 7) = test: as above; format: cell-based; conditions: EchoV 7, BGMK-DAF cells; for Viral RNA Log10: no treatment 5.61
# Description: as §1
# enteroviruses = test: In vitro inhibition of four enteroviruses in interferon pre-treated, chronically infected cells (summary); format: cell-based, enterovirus; conditions: cells pre-treated with interferon to produce chronic infection; four enteroviruses tested
# Description: as §1
smiles,measurement,setting,value
"O=C1CCC[C@@H]2[C@H]3CCC[N@+]4([O-])CCC[C@@H](CN12)[C@@H]34 [Oxymatrine, oxymatrine]",Dec Log10 (reduction of log viral RNA vs no-treatment wells),coxsackievirus B3 (CVB3); 1 μM oxymatrine,−6.24 Log10
same,Viral RNA Log10,coxsackievirus B3 (CVB3); 1 μM oxymatrine,0.60 Log10
same,Dec Log10 (reduction of log viral RNA vs no-treatment wells),coxsackievirus B3 (CVB3); 10 μM oxymatrine,−6.54 Log10
same,Viral RNA Log10,coxsackievirus B3 (CVB3); 10 μM oxymatrine,0.30 Log10
same,Dec Log10 (reduction of log viral RNA vs no-treatment wells),coxsackievirus B3 (CVB3); 100 μM oxymatrine,−5.54 Log10
same,Viral RNA Log10,coxsackievirus B3 (CVB3); 100 μM oxymatrine added 162 h post-infection,1.30 Log10
same,Dec Log10 (reduction of log viral RNA vs no-treatment wells),coxsackievirus B4 (CVB4); 1 μM oxymatrine,−0.55 Log10
same,Viral RNA Log10,coxsackievirus B4 (CVB4); 1 μM oxymatrine,3.66 Log10
same,Dec Log10 (reduction of log viral RNA vs no-treatment wells),coxsackievirus B4 (CVB4); 10 μM oxymatrine,−4.20 Log10
same,Viral RNA Log10,coxsackievirus B4 (CVB4); 10 μM oxymatrine,0.00 Log10
same,Dec Log10 (reduction of log viral RNA vs no-treatment wells),coxsackievirus B4 (CVB4); 100 μM oxymatrine,−3.90 Log10
same,Viral RNA Log10,coxsackievirus B4 (CVB4); 100 μM oxymatrine,0.30 Log10
same,Dec Log10 (reduction of log viral RNA vs no-treatment wells),echovirus 6 (EchoV 6); 1 μM oxymatrine,0.00 Log10
same,Viral RNA Log10,echovirus 6 (EchoV 6); 1 μM oxymatrine,5.00 Log10
same,Dec Log10 (reduction of log viral RNA vs no-treatment wells),echovirus 6 (EchoV 6); 10 μM oxymatrine,0.37 Log10
same,Viral RNA Log10,echovirus 6 (EchoV 6); 10 μM oxymatrine,5.37 Log10
same,Dec Log10 (reduction of log viral RNA vs no-treatment wells),echovirus 6 (EchoV 6); 100 μM oxymatrine,0.00 Log10
same,Viral RNA Log10,echovirus 6 (EchoV 6); 100 μM oxymatrine,5.00 Log10
same,Dec Log10 (reduction of log viral RNA vs no-treatment wells),echovirus 7 (EchoV 7); 1 μM oxymatrine,−0.28 Log10
same,Viral RNA Log10,echovirus 7 (EchoV 7); 1 μM oxymatrine,5.33 Log10
same,Dec Log10 (reduction of log viral RNA vs no-treatment wells),echovirus 7 (EchoV 7); 10 μM oxymatrine,−0.17 Log10
same,Viral RNA Log10,echovirus 7 (EchoV 7); 10 μM oxymatrine,5.45 Log10
same,Dec Log10 (reduction of log viral RNA vs no-treatment wells),echovirus 7 (EchoV 7); 100 μM oxymatrine,0.22 Log10
same,Viral RNA Log10,echovirus 7 (EchoV 7); 100 μM oxymatrine,5.83 Log10
same,Inhibition of enteroviruses in vitro,enteroviruses,significant inhibition of two out of four enteroviruses
